This note sets out measurements from PMC12607616, “Elucidation of a bacterial pathway for catabolism of the β–β-linked dilignol pinoresinol” (mBio, 2025).

Like-named read-outs stand apart in the source and are kept apart here.

This assay relates to T1, PinZ.
T1 construct: full-length, N-terminal hexahistidine tag kept (pET-28a(+), pJM492), E. coli BL21 Star (DE3)
The assay is described as follows: steady-state kinetics, reversed-phase HPLC. Conditions: NADPH co-substrate, 20 mM Tris-HCl pH 7.0, 30 °C, 10 min, read-out: apparent Km. In kind it is biochemical, Novosphingobium rhizosphaerae.

For the compound `COc1cc(C2OCC3C(c4ccc(O)c(OC)c4)OCC23)ccc1O` (racemic) [(±)-pinoresinol], for the setting “racemate”, the Km (usually the substrate concentration at which the rate is half of its maximum) was 27 ± 6.6 µM.

Regarding `COc1cc([C@H]2OC[C@H]3[C@@H]2CO[C@@H]3c2ccc(O)c(OC)c2)ccc1O` [(+)-pinoresinol], for the setting “~88% e.e. (+)-pinoresinol preparation”, the Michaelis constant (Km) stood at 22.1 ± 3.2 µM.
